Laboratory results: patent US20220016079A1, “COMBINATION TREATMENT OF HIV INFECTIONS” (priority 2018, published 2022)

Experiments:
[1] = tested on: latent HIV-1 in resting CD4+ T cells; test: Ex vivo HIV-1 reactivation in human resting CD4+ T cells from ART-treated HIV-1-infected humanized BLT mice (HIV RNA in supernatant); assay type: cell-based
Procedure: The efficacy of IAPa, ICI or IAPa/ICI combinations in reversing HIV-1 latency was tested in resting CD4+ T cells derived from ART-treated HIV-1-infected humanized BLT mice.
Human resting CD4+ T cells from ten mice were isolated from blood, thymic organoid, lung, spleen, bone marrow, lymph nodes and liver. Isolated human resting CD4+ T cells were pooled, counted, split and treated in duplicate for 48 h with different IAPa (1 μM) or ICI (10 μg/ml) in monotherapy, or the IAPa/ICI combinations. Amounts of virions released from cells were quantified at the indicated time points by quantifying HIV RNA levels (HIV RNA copies/mL) in supernatant of cell culture using one-step reverse transcriptase quantitative real-time PCR (ABI custom TaqMan Assays-by-Design) according to the manufacturer's instructions. Primers were 5-[…]-3 and 5-[…]-3, and MGB probe 5-FAM-[…]-Q-3, where FAM is 6-carboxyfluorescein.
(§1) The experiment was carried out using the same agents as described above for Example 8.1 (with the exception that no birinapant was used).

[2] = tested on: latent HIV in resting CD4+ T-lymphocytes; test: HIV-1 reactivation in resting CD4+ T cells from PBMCs of three ART-treated HIV patients (HIV RNA in supernatant); assay type: cell-based, human
Source text: The experiments of this example analyzed the ability of IAPa, ICIs, or IAPa/ICI combinations at reactivating latent HIV in resting CD4+ T-lymphocytes isolated from peripheral blood monocytic cells (PBMCs) derived from HIV patients currently under ART.
Method: Resting CD4+ T cells were isolated from PBMCs of three ART-treated HIV patients by negative selection and magnetic separation (Easysep Mouse/Human Chimera Isolation Kits from […] technologies). Isolated resting CD4+ T cells (50,000 cells/50 μL) were treated in duplicate for 48h with different IAPa (1 μM) or ICI (10 μg/ml) in monotherapy, or the IAPa/ICI combinations. Amounts of virions released from cells were quantified at the indicated time points by quantifying HIV RNA levels (HIV RNA copies/mL) in supernatant of cell culture using one-step reverse transcriptase quantitative real-time PCR (ABI custom TaqMan Assays-by-Design) according to the manufacturer's instructions. Primers were 5-[…]-3 and 5-[…]-3, and MGB probe 5-FAM-[…]-Q-3, where FAM is 6-carboxyfluorescein.
as §1

[3] = tested on: latent HIV-1 in rCD4+ cells co-cultured with CD8+ cells; test: HIV-1 reactivation in ex vivo co-cultures of rCD4+ and CD8+ cells from an ART-treated HIV patient (HIV RNA in supernatant); assay type: cell-based, human
Procedure: The efficacy of IAPa, ICI or IAPa/ICI combinations in reversing HIV-1 latency was tested in HIV-1 infected rCD4+ cells co-cultured for 48 h with CD8+ cells from the same donor.
Method: Blood from one HIV-1-infected patient under ART was collected (500 mL) and CD4+ and CD8+ cells isolated using beads coated with specific antibodies following manufacturer's instruction (MojoSort™ Human Cell Isolation Kits from Biolegend). The CD4+ T cells were re-infected with HIV-1 (JR-CSF) (1 μg of p24), incubated for 3 days to allow establishment of infection, and treated with ART ([…]) for 7 days to ensure presence of enough latent HIV CD4+ cells (rCD4+) in the culture. Upon ART removal, rCD4 were then isolated following manufacturer's instruction (EasySep™ Human Resting CD4+ T Cell Isolation Kit). The isolated rCD4 were mixed with autologous (from the same patient) uninfected CD8+ T cells at a 1:1 ratio (100,000 cells) and incubated in duplicate for 48 h with different IAPa ([…]) or ICI (10 μg/ml) in monotherapy, or the IAPa/ICI combinations. Amounts of virions released from cells were quantified at the indicated time points by quantifying HIV RNA levels (HIV RNA copies/mL) in supernatant of cell culture using one-step reverse transcriptase quantitative real-time PCR (ABI custom TaqMan Assays-by-Design) according to the manufacturer's instructions. Primers were 5-[…]-3 and 5-[…]-3, and MGB probe 5-FAM-[…]-Q-3, where FAM is 6-carboxyfluorescein.

2D10 cells = test: Cytotoxicity by LDH assay in 2D10 cells; assay type: cell-based; details: 0 to 20 μM, 48 h
Procedure: Drug titration was conducted.
For analysis of cell viability, cells (100,000 cells/100 μL) were treated in triplicate for 48 h with increasing concentrations of Debio-1143 or other known LRAs (0 to 20 μM). Cellular cytotoxicity was analyzed by Lactate dehydrogenase (LDH) assay. LDH is an oxidoreductase enzyme that catalyzes the interconversion of pyruvate and lactate. Cells release LDH into the bloodstream after tissue damage or red blood cell hemolysis. Since LDH is a fairly stable enzyme, it has been widely used to evaluate the presence of damage and toxicity of tissue and cells. In this particular, LDH reduces NAD to NADH, which is specifically detected by colorimetric (490 nm) assay.

[4] = tested on: latent HIV-1 in 2D10 cells; test: HIV-1 reactivation in latent GFP-reporter 2D10 cells, Debio 1143 and other LRAs alone or in combination; assay type: cell-based; details: LRA at single predetermined concentration with Debio 1143, already at 2 μM Debio 1143, 48 h
Procedure: We compared the efficacy of Debio-1143 at reversing HIV-1 latency with that of other LRAs. We then analyzed the cytotoxicity of Debio-1143 with that of the other LRAs on 2D10 cells. Drug titration was conducted.
Methods: HIV-1 latent GFP-reporter 2D10 cells (100,000 cells/100 μL) were treated in triplicate for 48 h with increasing concentrations of either only Debio-1143 or the LRAs (2000 nM or 20000 nM), or with Debio 1143 (2000 nM or 20000 nM) in combination with the LRAs at a single predetermined concentration (see Table 2). HIV reactivation was analyzed via GFP expression by flow cytometry.

BIRC2 = target: T1, BIRC2 (Homo sapiens, UniProt Q13490); test: BIRC2 (cIAP1) degradation by Western blotting; assay type: cell-based; details: TNFα 10 ng/ml, 2D10 and 293T cells
T1 construct: endogenous in cells; host or cells: 2D10, 293T and CD4+ T cells
Procedure: It was investigated whether Debio-1143 reverses HIV-1 latency by acting on the NF-κB pathway. Canonical and non-canonical NF-κB signaling pathways play an important role in the reactivation of latent HIV-1, implicating its regulation as an important therapeutic strategy for latency reversal.
Method: 2D10 (A) or 293T (B) and CD4+ T cells (C) cells were treated with DMSO, Debio-1143 (1 μM) and TNFα (10 ng/ml) for the indicated times and analyzed by Western blotting for BIRC2 and IkBα protein expression using antibodies specifically detecting human BIRC2, human IkBα, or human CypA, such as commercially available (e.g. from R&D Systems, Cell Signaling, Santa Cruz Biotechnology, or other sources).

[5] = IAPa 1 μM monotherapy (0.1% DMSO, no ICI), 48 h
[6] = IAPa 1 μM with Control IgG1, 48 h
[7] = IAPa 1 μM with Control IgG2, 48 h
[8] = IAPa 1 μM monotherapy (0.1% DMSO, no ICI), 48 h (Table 3)
[9] = IAPa 1 μM with Control IgG1, 48 h (Table 3)
[10] = IAPa 1 μM with Control IgG2, 48 h (Table 3)

T1 sequence (Q13490 whole entry): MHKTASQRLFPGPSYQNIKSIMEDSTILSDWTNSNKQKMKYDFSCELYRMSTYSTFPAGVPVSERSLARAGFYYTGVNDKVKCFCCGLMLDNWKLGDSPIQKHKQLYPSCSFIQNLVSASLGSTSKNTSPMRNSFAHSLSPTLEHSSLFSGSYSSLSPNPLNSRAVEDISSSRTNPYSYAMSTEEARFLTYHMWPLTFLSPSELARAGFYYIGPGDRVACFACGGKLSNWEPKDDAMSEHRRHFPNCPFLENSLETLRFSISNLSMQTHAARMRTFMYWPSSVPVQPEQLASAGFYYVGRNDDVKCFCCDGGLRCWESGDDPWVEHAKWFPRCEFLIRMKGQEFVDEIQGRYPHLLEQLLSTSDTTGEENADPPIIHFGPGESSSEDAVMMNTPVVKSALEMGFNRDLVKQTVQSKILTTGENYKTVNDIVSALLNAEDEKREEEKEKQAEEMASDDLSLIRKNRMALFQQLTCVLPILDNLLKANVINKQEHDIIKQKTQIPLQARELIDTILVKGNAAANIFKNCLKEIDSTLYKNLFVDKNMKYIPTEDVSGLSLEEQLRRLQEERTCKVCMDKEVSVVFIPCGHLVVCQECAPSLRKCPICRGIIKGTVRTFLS

CN[C@@H](C)C(=O)N[C@H](C(=O)N1CCC[C@H]1C(=O)Nc1sc(-c2ncco2)nc1-c1ccccc1)C1CCCCC1 [CUDC-427]
latency reversal class (HIV RNA copies/ml in supernatant) [1, 5]: 2 (Between 2501 and 5000 RNA copies/ml were classified as “2”) | latency reversal class (HIV RNA copies/ml in supernatant) [1, 6]: 2 (Between 2501 and 5000 RNA copies/ml were classified as “2”) | latency reversal class (HIV RNA copies/ml in supernatant) [1, 7]: 2 (Between 2501 and 5000 RNA copies/ml were classified as “2”) | latency reversal class (HIV RNA copies/ml in supernatant) [2, 5]: 1 (Between 501 and 1000 RNA copies/ml were classified as “1”) | latency reversal class (HIV RNA copies/ml in supernatant) [2, 6]: 1 (Between 501 and 1000 RNA copies/ml were classified as “1”) | latency reversal class (HIV RNA copies/ml in supernatant) [2, 7]: 1 (Between 501 and 1000 RNA copies/ml were classified as “1”) | latency reversal class (HIV RNA copies/ml in supernatant) [3, 8]: 3 (Subsequent classes were defined accordingly in steps of 500 RNA copies/ml) | latency reversal class (HIV RNA copies/ml in supernatant) [3, 9]: 3 (Subsequent classes were defined accordingly in steps of 500 RNA copies/ml) | latency reversal class (HIV RNA copies/ml in supernatant) [3, 10]: 3 (Subsequent classes were defined accordingly in steps of 500 RNA copies/ml)

CN[C@@H](C)C(=O)N[C@H](C(=O)N1CCC[C@H]1c1nc(C(=O)c2ccc(F)cc2)cs1)C1CCCCC1 [LCL161]
latency reversal class (HIV RNA copies/ml in supernatant) [1, 5]: 2 (Between 2501 and 5000 RNA copies/ml were classified as “2”) | latency reversal class (HIV RNA copies/ml in supernatant) [1, 6]: 2 (Between 2501 and 5000 RNA copies/ml were classified as “2”) | latency reversal class (HIV RNA copies/ml in supernatant) [1, 7]: 2 (Between 2501 and 5000 RNA copies/ml were classified as “2”) | latency reversal class (HIV RNA copies/ml in supernatant) [2, 5]: 1 (Between 501 and 1000 RNA copies/ml were classified as “1”) | latency reversal class (HIV RNA copies/ml in supernatant) [2, 6]: 1 (Between 501 and 1000 RNA copies/ml were classified as “1”) | latency reversal class (HIV RNA copies/ml in supernatant) [2, 7]: 1 (Between 501 and 1000 RNA copies/ml were classified as “1”) | latency reversal class (HIV RNA copies/ml in supernatant) [3, 8]: 3 (Subsequent classes were defined accordingly in steps of 500 RNA copies/ml) | latency reversal class (HIV RNA copies/ml in supernatant) [3, 9]: 2 (Subsequent classes were defined accordingly in steps of 500 RNA copies/ml) | latency reversal class (HIV RNA copies/ml in supernatant) [3, 10]: 3 (Subsequent classes were defined accordingly in steps of 500 RNA copies/ml)

CN1C(=O)[C@@]23C[C@]4([C@]56C[C@@]78SS[C@@](CO)(C(=O)N7[C@H]5Nc5ccccc56)N(C)C8=O)c5ccccc5N[C@@H]4N2C(=O)[C@]1(CO)SS3 [chaetocin]
cytotoxicity (LDH assay) (2D10 cells): highly toxic

O=C(CCCCCCC(=O)Nc1ccccc1)NO [vorinostat]
degree of HIV reactivation in combination with Debio 1143 [4]: high degrees of HIV reactivation

CCC/C=C/C=C/C(=O)O[C@H]1/C(=C/C(=O)OC)C[C@H]2C[C@H]([C@@H](C)O)OC(=O)C[C@H](O)C[C@@H]3C[C@H](OC(C)=O)C(C)(C)[C@](O)(C[C@@H]4C/C(=C/C(=O)OC)C[C@H](/C=C/C(C)(C)[C@]1(O)O2)O4)O3 [bryostatin-1]
degree of HIV reactivation in combination with Debio 1143 [4]: high degrees of HIV reactivation | cytotoxicity (LDH assay) (2D10 cells): highly toxic

TNFα [reference compound]
BIRC2 degradation (BIRC2): not

CC[C@H](NC(=O)[C@H](C)NC)C(=O)N1C[C@@H](O)C[C@H]1Cc1c(-c2[nH]c3cc(F)ccc3c2C[C@@H]2C[C@H](O)CN2C(=O)[C@H](CC)NC(=O)[C@H](C)NC)[nH]c2cc(F)ccc12 [Birinapant]
latency reversal class (HIV RNA copies/ml in supernatant) ([3]; IAPa 1 μM monotherapy (0.1% DMSO, no ICI), 48 h (Table 4)): 3 (Subsequent classes were defined accordingly in steps of 500 RNA copies/ml) | latency reversal class (HIV RNA copies/ml in supernatant) ([3]; IAPa 1 μM with Control IgG1, 48 h (Table 4)): 3 (Subsequent classes were defined accordingly in steps of 500 RNA copies/ml) | latency reversal class (HIV RNA copies/ml in supernatant) ([3]; IAPa 1 μM with Control IgG2, 48 h (Table 4)): 3 (Subsequent classes were defined accordingly in steps of 500 RNA copies/ml)

Cc1[nH]c2ccccc2c1CCNCc1ccc(/C=C/C(=O)NO)cc1 [panobinostat]
cytotoxicity (LDH assay) (2D10 cells): highly toxic

Cc1sc2c(c1C)C(c1ccc(Cl)cc1)=N[C@@H](CC(=O)OC(C)(C)C)c1nnc(C)n1-2 [JQ1]
degree of HIV reactivation in combination with Debio 1143 [4]: high degrees of HIV reactivation

Nc1ccccc1NC(=O)c1ccc(CNC(=O)OCc2cccnc2)cc1 [entinostat]
degree of HIV reactivation in combination with Debio 1143 [4]: high degrees of HIV reactivation
